From patent US20200038416A1, “METHODS OF TREATING CARDIAC CONDUCTION DEFECTS USING AMINOSTEROL COMPOSITIONS” (Enterin, Inc., priority 2018, published 2020)

Key:
[1] = test system: patients with PD and constipation; assay: Phase 2 trial safety and adverse event profile (Stages 1 and 2); assay type: in vivo, human
Method: Tolerability limits included diarrhea or vomiting.
(§1) In Stage 2, 34 patients were evaluated.

[2] = test system: patients with PD and constipation; assay: Phase 2 trial Stage 2: bowel function / stool related indices on daily oral dosing; assay type: in vivo, human; conditions: for CSBM/week in the randomized cohort, Treatment (n = 6): baseline 0.8
Method: Following successful screening, all subjects underwent a 14-day run-in period where the degree of constipation was assessed through a validated daily log (Zinsmeister et al. 2013) establishing baseline CSBMs/week. Subjects with an average of <3 CSBMs/week proceeded to dosing.
as §1
The primary efficacy outcome variable was whether or not a subject was a “success” or “failure”. This is an endpoint based on subject diary entries for the “fixed dose” period prior to the endpoint assessment defined as average complete stool frequency increase by 1 or more over baseline, or 3 or more complete spontaneous stools/week. The subject was deemed a “success” if s/he met one or more of the criteria listed above, otherwise the subject was deemed a “failure”. The primary analysis was based on all subjects with a baseline assessment and an assessment at the end of the “fixed-dose” period and was a comparison of the proportion of successes with 0.10 (the null hypothesis corresponding to no treatment effect).

[3] = Stage 1, 10 dosed, unrelated to ENT-01

CC(C)[C@@H](CC[C@@H](C)[C@H]1CC[C@H]2[C@@H]3[C@H](O)C[C@H]4C[C@@H](NCCCNCCCCN)CC[C@]4(C)[C@H]3CC[C@]12C)OS(=O)(=O)O (single isomer, unassigned) [squalamine (ENT-01), squalamine]
share of AEs confined to the GI tract ([1]; Stage 1): 88% | patients with diarrhea ([1]; Stage 1, 4/10): 40% | patients with nausea ([1]; Stage 1, 4/10): 40% | Abdominal pain, Mild: patients with adverse event ([1]; Stage 1, 10 dosed): 2 (20) n, % | Abdominal pain, Moderate: patients with adverse event ([1]; Stage 1, 10 dosed): 3 (30) n, % | Blood in urine, Moderate: patients with adverse event ([1]; Stage 1, 10 dosed): 0 n, % | Diarrhea, Mild: patients with adverse event ([1]; Stage 1, 10 dosed): 1 (10) n, % | Diarrhea, Moderate: patients with adverse event ([1]; Stage 1, 10 dosed): 3 (30) n, % | Diarrhea, Severe: patients with adverse event ([1]; Stage 1, 10 dosed): 0 n, % | Difficulty falling asleep, Mild: patients with adverse event ([1]; Stage 1, 10 dosed): 0 n, % | Difficulty falling asleep, Moderate: patients with adverse event ([1]; Stage 1, 10 dosed): 0 n, % | Dizziness, Mild: patients with adverse event ([1]; Stage 1, 10 dosed): 0 n, % | Dizziness, Moderate: patients with adverse event ([1]; Stage 1, 10 dosed): 0 n, % | Eye infection, Mild: patients with adverse event ([1]; Stage 1, 10 dosed): 0 n, % | Eye infection, Moderate: patients with adverse event ([1]; Stage 1, 10 dosed): 0 n, % | Flatulence, Mild: patients with adverse event ([1]; Stage 1, 10 dosed): 2 (20) n, % | Flatulence, Moderate: patients with adverse event ([1]; Stage 1, 10 dosed): 0 n, % | Headache, Mild: patients with adverse event ([1]; Stage 1, 10 dosed): 1 (10) n, % | Headache, Moderate: patients with adverse event ([1]; Stage 1, 10 dosed): 0 n, % | Increased urinary frequency, Mild: patients with adverse event ([1]; Stage 1, 10 dosed): 0 n, % | Increased urinary frequency, Moderate: patients with adverse event ([1]; Stage 1, 10 dosed): 0 n, % | Loss of appetite, Moderate: patients with adverse event ([1]; Stage 1, 10 dosed): 0 n, % | Lower GI bleed, Severe: patients with adverse event ([1]; Stage 1, 10 dosed): 0 n, % | Nausea, Mild: patients with adverse event ([1]; Stage 1, 10 dosed): 4 (40) n, % | Nausea, Moderate: patients with adverse event ([1]; Stage 1, 10 dosed): 0 n, % | Skin lesions-rash, Mild: patients with adverse event ([1]; Stage 1, 10 dosed): 0 n, % | Skin lesions-rash, Moderate: patients with adverse event ([1]; Stage 1, 10 dosed): 0 n, % | Urinary retention, Mild: patients with adverse event ([1]; Stage 1, 10 dosed): 0 n, % | Urinary retention, Moderate: patients with adverse event ([1]; Stage 1, 10 dosed): 0 n, % | Urinary tract infection, Mild: patients with adverse event ([1]; Stage 1, 10 dosed): 0 n, % | Urinary tract infection, Moderate: patients with adverse event ([1]; Stage 1, 10 dosed): 0 n, % | Vomiting, Mild: patients with adverse event ([1]; Stage 1, 10 dosed): 1 (10) n, % | Vomiting, Moderate: patients with adverse event ([1]; Stage 1, 10 dosed): 0 n, % | Worsening acid reflux, Mild: patients with adverse event ([1]; Stage 1, 10 dosed): 0 n, % | Worsening acid reflux, Moderate: patients with adverse event ([1]; Stage 1, 10 dosed): 0 n, % | Worsening hemorrhoid, Mild: patients with adverse event ([1]; Stage 1, 10 dosed): 0 n, % | Worsening hemorrhoid, Moderate: patients with adverse event ([1]; Stage 1, 10 dosed): 0 n, % | Blood in urine, Mild: patients with adverse event [1, 3]: 1 (10) n, % | Loss of appetite, Mild: patients with adverse event [1, 3]: 1 (10) n, % | share of AEs confined to the GI tract ([1]; Stage 2): 63% | Abdominal pain, Mild: patients with adverse event ([1]; Stage 2, 34 dosed): 4 n | Abdominal pain, Moderate: patients with adverse event ([1]; Stage 2, 34 dosed): 2 n | Blood in urine, Mild: patients with adverse event ([1]; Stage 2, 34 dosed): 0 n | Blood in urine, Moderate: patients with adverse event ([1]; Stage 2, 34 dosed): 0 n | Diarrhea, Mild: patients with adverse event ([1]; Stage 2, 34 dosed): 12 n | Diarrhea, Moderate: patients with adverse event ([1]; Stage 2, 34 dosed): 2 n | Diarrhea, Severe: patients with adverse event ([1]; Stage 2, 34 dosed): 1 n | Difficulty falling asleep, Mild: patients with adverse event ([1]; Stage 2, 34 dosed): 1 n | Difficulty falling asleep, Moderate: patients with adverse event ([1]; Stage 2, 34 dosed): 0 n | Dizziness, Mild: patients with adverse event ([1]; Stage 2, 34 dosed): 7 n | Dizziness, Moderate: patients with adverse event ([1]; Stage 2, 34 dosed): 1 n | Eye infection, Mild: patients with adverse event ([1]; Stage 2, 34 dosed): 1 n | Eye infection, Moderate: patients with adverse event ([1]; Stage 2, 34 dosed): 0 n | Flatulence, Mild: patients with adverse event ([1]; Stage 2, 34 dosed): 1 n | Flatulence, Moderate: patients with adverse event ([1]; Stage 2, 34 dosed): 0 n | Headache, Mild: patients with adverse event ([1]; Stage 2, 34 dosed): 3 n | Headache, Moderate: patients with adverse event ([1]; Stage 2, 34 dosed): 0 n | Increased urinary frequency, Mild: patients with adverse event ([1]; Stage 2, 34 dosed): 2 n | Increased urinary frequency, Moderate: patients with adverse event ([1]; Stage 2, 34 dosed): 0 n | Loss of appetite, Mild: patients with adverse event ([1]; Stage 2, 34 dosed): 0 n | Loss of appetite, Moderate: patients with adverse event ([1]; Stage 2, 34 dosed): 0 n | Nausea, Mild: patients with adverse event ([1]; Stage 2, 34 dosed): 18 n | Nausea, Moderate: patients with adverse event ([1]; Stage 2, 34 dosed): 1 n | Skin lesions-rash, Mild: patients with adverse event ([1]; Stage 2, 34 dosed): 3 n | Skin lesions-rash, Moderate: patients with adverse event ([1]; Stage 2, 34 dosed): 0 n | Urinary retention, Mild: patients with adverse event ([1]; Stage 2, 34 dosed): 1 n | Urinary retention, Moderate: patients with adverse event ([1]; Stage 2, 34 dosed): 0 n | Urinary tract infection, Mild: patients with adverse event ([1]; Stage 2, 34 dosed): 1 n | Urinary tract infection, Moderate: patients with adverse event ([1]; Stage 2, 34 dosed): 2 n | Vomiting, Mild: patients with adverse event ([1]; Stage 2, 34 dosed): 2 n | Vomiting, Moderate: patients with adverse event ([1]; Stage 2, 34 dosed): 0 n | Worsening acid reflux, Mild: patients with adverse event ([1]; Stage 2, 34 dosed): 4 n | Worsening acid reflux, Moderate: patients with adverse event ([1]; Stage 2, 34 dosed): 0 n | Worsening hemorrhoid, Mild: patients with adverse event ([1]; Stage 2, 34 dosed): 1 n | Worsening hemorrhoid, Moderate: patients with adverse event ([1]; Stage 2, 34 dosed): 0 n | Lower GI bleed, Severe: patients with adverse event ([1]; Stage 2, colonic diverticulosis, polyp, patient on aspirin, Plavix and naproxen, unrelated to ENT-01): 1 n | CSBM/week in the randomized cohort, group later randomized to Placebo (n = 9) ([2]; Fixed dose period (on drug, before randomization), baseline 1.6): 3.3 CSBM/week | CSBM/week in the randomized cohort, Treatment (n = 6) ([2]; Fixed dose period): 3.2 CSBM/week | CSBM/week in the randomized cohort, Treatment (n = 6) ([2]; Randomized period (4-6 days continued treatment)): 2.4 CSBM/week | CSBM/week in the randomized cohort, Treatment (n = 6) ([2]; Washout): 0.9 CSBM/week
